From patent US20250129135A1, “Multi-Agonist and Use Thereof” (priority 2021, published 2025)
Starred links: 1 amine or outer side, 2 acyl side, 3 side chain; linkers in the order of their positions; H or OH if unused. Non-standard residues stand in square brackets, D forms with d. Residues, ends and D or L forms follow the SMILES beside them. Groups on a side chain read outwards from the residue. *: point of attachment. C20 diacid = O=C(O)CCCCCCCCCCCCCCCCCCC(=O)*; αMePhe(2-F) = C[C@](N)(Cc1ccccc1F)C(=O)O; γGlu = O=C(O)[C@H](CCC(=O)[*:2])N[*:1]; αMeF = C[C@](N)(Cc1ccccc1)C(=O)O; αMeL = CC(C)C[C@](C)(N)C(=O)O; AEEA = NCCOCCOCC(=O)O; Ac3c = NC1(C(=O)O)CC1; Aib = CC(C)(N)C(=O)O

Tests used:
Human GLP-1R = Human GLP-1R (Homo sapiens, UniProt P43220); assay: cAMP (HTRF) activity in HEK-293 cells stably overexpressing human GLP-1 receptor; type: cell-based; parameters: expressed in transfected cells; host or cells: HEK-293; conditions: for Human GLP-1R Rel. A (Relative Activity): EC50 of human GLP-1 (7-37) / EC50 of compound; for EC50: stable transfected cell cAMP activity, at least 3 independent tests
How it was run: (§1)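 Agonism was assessed from intracellular cAMP by HTRF. Cells resuspended in HBSS were treated with compound for 60 minutes at room temperature, then with detection reagent for a further 60 minutes. EC50 (nM) values came from concentration–response curves.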

[1] = tested on: human primary liver cells; type: cell-based; conditions: for Rel. A (Relative Activity) on human primary liver cells: relative to GCG
How it was run: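 cAMP readout after 60 min with detection reagent, following 60 min room-temperature compound incubation. Cells were primary human liver cells thawed at 37° C and resuspended in HBSS.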

Human GIP R = molecular target: T1, Human GIP R (Homo sapiens, UniProt P48546); assay: cAMP (HTRF) activity in CHO cells stably overexpressing GIP receptor; type: cell-based; conditions: for Human GIP R Rel. A (Relative Activity): EC50 of human GIP / EC50 of compound; for EC50: stable transfected cell cAMP activity, at least 3 independent tests
T1 construct: expressed in transfected cells; host or cells: CHO
T1 sequence (P48546 22-466): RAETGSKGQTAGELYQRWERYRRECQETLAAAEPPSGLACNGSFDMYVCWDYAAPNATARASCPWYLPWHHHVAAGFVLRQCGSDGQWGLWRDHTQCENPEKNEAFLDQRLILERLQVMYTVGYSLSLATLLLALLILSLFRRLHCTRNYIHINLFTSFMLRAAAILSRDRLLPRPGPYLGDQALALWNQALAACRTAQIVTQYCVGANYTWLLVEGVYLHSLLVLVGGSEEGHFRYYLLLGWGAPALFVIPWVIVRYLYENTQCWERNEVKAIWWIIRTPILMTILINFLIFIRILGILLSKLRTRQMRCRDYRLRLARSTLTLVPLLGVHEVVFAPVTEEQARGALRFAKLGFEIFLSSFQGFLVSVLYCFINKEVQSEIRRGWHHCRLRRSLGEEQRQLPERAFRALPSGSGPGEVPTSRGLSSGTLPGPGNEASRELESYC
How it was run: as §1

Human GCG R = molecular target: T2, Human GCG R (Homo sapiens, UniProt P47871); assay: cAMP (HTRF) activity in HEK-293 cells stably overexpressing human GCG receptor; type: cell-based; conditions: EC50 of human GCG / EC50 of compound
T2 construct: expressed in transfected cells; host or cells: HEK-293
How it was run: as §1

3T3-L1 adipocytes = conditions: for Rel. A (Relative Activity) on 3T3-L1 adipocyte: relative to GIP
How it was run: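 Compound-induced cAMP was measured in mature 3T3-L1 adipocytes after 60 min room-temperature exposure to a 10-concentration, 3-fold dilution series, followed by 60 min with kit detection reagent and curve fitting. Differentiation used IBMX/dexamethasone/insulin (5 days), insulin with 10 uM rosiglitazone (3 days), then 2–3 days in 10% FBS.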

RIN-m5F cells = type: cell-based, rat; conditions: for Rel. A (Relative Activity) on RIN-m5F: relative to GLP-1(7-37)
How it was run: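 After 60 min room-temperature exposure of HBSS-suspended RIN-m5F cells to compound and another 60 min with detection reagent, cellular cAMP level was determined.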

C57 BL/6J DIO mice = assay: In vivo pharmacodynamics in high-fat diet induced obesity (DIO) mice; parameters: species or system mouse; conditions: 3 nmol/kg, Day 15, Mean±SEM
From the text: High-fat diet induced obesity (DIO) mice have characteristics such as obesity, elevated blood sugar, insulin resistance, and lipid abnormalities, all of which are very significant metabolic syndromes similar to a human body. The effects of the compounds of the present application on body weight, food intake, blood sugar, and lipids in C57 BL/6J DIO mice were studied.
Obesity was induced in mice by feeding with a high-fat diet (60 kcal % of calories from fat). […] After grouping, one animal was raised in each cage for one week, during which each of the animals was injected subcutaneously (S.C.) with a solvent (1×PBS, 5 ml/kg) to pre-adapt the experimental operation process.
After the preparation of animals, vehicle control or compounds were administered to groups of animals by subcutaneous injection, in which the compounds were dissolved in 1×PBS, the dosage was 5 ml/kg, and the administration operation was started at 9:00 am and conducted once every three days (Q3D) for 15 days. Throughout the entire experimental study, animal weight and food intake were measured daily before administration, and compared with initial weight and food intake of the same animal before administration to calculate a percentage change in animal weight (%) and cumulative food intake, so as to evaluate the impact of compounds on changes in body weight and food intake.
At the end point of the experiment (Day 15), the body weight of the mice was measured, and then fasting blood glucose was measured by taking blood from the tail tip of broken tail without anesthesia. After the blood collection, the animals were anesthetized with CO2 and euthanized. Then, blood was taken from the heart and plasma was separated by centrifugation. The plasma was used to measure total cholesterol (TC), low-density lipoprotein cholesterol (LDL-C), triglycerides (TG), and blood insulin content. The liver was separated for homogenization, and then centrifuged to obtain the supernatant for determining triglyceride content in the liver.
All results were expressed in Mean±SEM, and the results were analyzed by one-way ANOVA using GraphPad Prism 5 software, followed by Dunnett's post hoc test compared to the Vehicle control group. The difference at the p<0.05 level was considered statistically significant.

T2 sequence (P47871 26-477): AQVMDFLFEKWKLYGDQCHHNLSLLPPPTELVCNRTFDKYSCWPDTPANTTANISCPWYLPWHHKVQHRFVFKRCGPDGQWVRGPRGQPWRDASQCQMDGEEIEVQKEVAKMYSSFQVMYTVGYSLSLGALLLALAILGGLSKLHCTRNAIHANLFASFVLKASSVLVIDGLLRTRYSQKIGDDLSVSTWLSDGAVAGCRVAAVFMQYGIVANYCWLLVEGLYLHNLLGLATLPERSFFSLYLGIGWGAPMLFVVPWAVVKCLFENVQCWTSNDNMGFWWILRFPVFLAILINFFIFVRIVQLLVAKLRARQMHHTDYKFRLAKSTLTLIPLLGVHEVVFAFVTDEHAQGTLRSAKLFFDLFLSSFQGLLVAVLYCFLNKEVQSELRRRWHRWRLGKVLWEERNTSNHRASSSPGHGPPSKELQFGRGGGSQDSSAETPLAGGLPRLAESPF
Sequence of Human GLP-1R (P43220 24-463): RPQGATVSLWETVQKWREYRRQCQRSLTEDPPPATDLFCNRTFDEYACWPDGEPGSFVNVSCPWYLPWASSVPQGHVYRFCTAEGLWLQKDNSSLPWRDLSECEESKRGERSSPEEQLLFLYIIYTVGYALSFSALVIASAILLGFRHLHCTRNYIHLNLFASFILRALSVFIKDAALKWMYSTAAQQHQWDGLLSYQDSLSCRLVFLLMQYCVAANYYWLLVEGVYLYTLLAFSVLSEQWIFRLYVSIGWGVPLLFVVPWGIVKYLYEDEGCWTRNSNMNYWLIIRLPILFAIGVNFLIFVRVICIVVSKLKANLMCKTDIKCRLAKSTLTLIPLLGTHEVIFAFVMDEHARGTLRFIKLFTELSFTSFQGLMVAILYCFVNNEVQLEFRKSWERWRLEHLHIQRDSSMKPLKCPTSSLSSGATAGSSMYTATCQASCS

| SMILES | Human GLP-1R Rel. A (Relative Activity) (Human GLP-1R) | EC50 (Human GLP-1R) | EC50 [1] | Rel. A (Relative Activity) on human primary liver cells [1] | Human GIP R Rel. A (Relative Activity) (Human GIP R) | Human GCG R Rel. A (Relative Activity) (Human GCG R) | EC50 (3T3-L1 adipocytes) | Rel. A (Relative Activity) on 3T3-L1 adipocyte (3T3-L1 adipocytes) | EC50 (RIN-m5F cells) | Rel. A (Relative Activity) on RIN-m5F (RIN-m5F cells) | Liver TG (C57 BL/6J DIO mice; Table 9-2) | EC50 (Human GIP R) | Liver TG (C57 BL/6J DIO mice; Table 9-1) |
| --- | --- | --- | --- | --- | --- | --- | --- | --- | --- | --- | --- | --- | --- |
| CC[C@H](C)[C@H](NC(=O)[C@H](Cc1ccccc1)NC(=O)[C@H](C)NC(=O)C(C)(C)NC(=O)[C@H](CCC(N)=O)NC(=O)[C@H](C)NC(=O)[C@H](CCCCNC(=O)COCCOCCNC(=O)COCCOCCNC(=O)CC[C@H](NC(=O)CCCCCCCCCCCCCCCCCCC(=O)O)C(=O)O)NC(=O)[C@H](CCCCN)NC(=O)[C@H](CC(=O)O)NC(=O)[C@H](CC(C)C)NC(=O)[C@](C)(CC(C)C)NC(=O)[C@@H](NC(=O)[C@H](CO)NC(=O)[C@H](Cc1ccc(O)cc1)NC(=O)[C@H](CC(=O)O)NC(=O)[C@H](CO)NC(=O)[C@@H](NC(=O)[C@](C)(Cc1ccccc1F)NC(=O)[C@@H](NC(=O)CNC(=O)[C@H](CCC(N)=O)NC(=O)C(C)(C)NC(=O)[C@@H](N)Cc1ccc(O)cc1)[C@@H](C)O)[C@@H](C)O)[C@@H](C)CC)C(=O)N[C@@H](CCC(=O)O)C(=O)N[C@@H](Cc1ccccc1)C(=O)N[C@@H](CC(C)C)C(=O)N[C@@H](CC(C)C)C(=O)N[C@@H](CCC(=O)O)C(=O)N[C@@H](CO)C(=O)N[C@@H](Cc1c[nH]cn1)C(=O)N1CCC[C@H]1C(=O)N[C@@H](CO)C(=O)N[C@@H](CO)C(=O)NC(C)(C)C(=O)N[C@@H](Cc1c[nH]cn1)C(=O)N1CCC[C@H]1C(=O)N1CCC[C@H]1C(=O)NC1(C(=O)N[C@@H](CO)C(N)=O)CC1 [Compound 40] (H-Y[Aib]QGT[αMePhe(2-F)]TSDYSI[αMeL]LDKK([AEEA-AEEA-γGlu-C20 diacid])AQ[Aib]AFIEFLLESHPSS[Aib]HPP[Ac3c]S-NH2) | 275.00% | 0.016 nM | 1.07 nM | 364.33% | 150.83% | 34.13% | 2.56 nM | 148.46% | 0.16 nM | 645.00% | 42.1 ± 5.22 mg |  |  |
| CC[C@H](C)[C@H](NC(=O)[C@H](Cc1ccccc1)NC(=O)[C@H](C)NC(=O)C(C)(C)NC(=O)[C@H](CCC(N)=O)NC(=O)[C@H](C)NC(=O)[C@H](CCCCNC(=O)COCCOCCNC(=O)COCCOCCNC(=O)CC[C@H](NC(=O)CCCCCCCCCCCCCCCCCCC(=O)O)C(=O)O)NC(=O)[C@H](CCCCN)NC(=O)[C@H](CC(=O)O)NC(=O)[C@H](CC(C)C)NC(=O)[C@](C)(CC(C)C)NC(=O)[C@@H](NC(=O)[C@H](CO)NC(=O)[C@H](Cc1ccc(O)cc1)NC(=O)[C@H](CC(=O)O)NC(=O)[C@H](CO)NC(=O)[C@@H](NC(=O)[C@](C)(Cc1ccccc1)NC(=O)[C@@H](NC(=O)CNC(=O)[C@H](CCC(N)=O)NC(=O)C(C)(C)NC(=O)[C@@H](N)Cc1ccc(O)cc1)[C@@H](C)O)[C@@H](C)O)[C@@H](C)CC)C(=O)N[C@@H](CCC(=O)O)C(=O)N[C@@H](Cc1ccc(O)cc1)C(=O)N[C@@H](CC(C)C)C(=O)N[C@@H](CC(C)C)C(=O)N[C@@H](CCC(=O)O)C(=O)N[C@H](C(=O)N[C@@H](Cc1c[nH]cn1)C(=O)N1CCC[C@H]1C(=O)N[C@@H](CO)C(=O)N[C@@H](CO)C(=O)NCC(=O)N[C@@H](C)C(=O)N1CCC[C@H]1C(=O)N1CCC[C@H]1C(=O)NC1(C(=O)N[C@@H](CO)C(N)=O)CC1)[C@@H](C)O [Compound 2] (H-Y[Aib]QGT[αMeF]TSDYSI[αMeL]LDKK([AEEA-AEEA-γGlu-C20 diacid])AQ[Aib]AFIEYLLETHPSSGAPP[Ac3c]S-NH2; N-terminus assumed) | 169.23% | 0.026 nM | 2.37 nM | 164.32% | 724.00% | 24.57% | 2.49 nM | 152.63% | 0.624 nM | 165.38% |  | 0.025 nM |  |
| CC[C@H](C)[C@H](NC(=O)[C@H](Cc1ccccc1)NC(=O)[C@H](C)NC(=O)C(C)(C)NC(=O)[C@H](CCC(N)=O)NC(=O)[C@H](C)NC(=O)[C@H](CCCCNC(=O)COCCOCCNC(=O)COCCOCCNC(=O)CC[C@H](NC(=O)CCCCCCCCCCCCCCCCCCC(=O)O)C(=O)O)NC(=O)[C@H](CCCCN)NC(=O)[C@H](CC(=O)O)NC(=O)[C@H](CC(C)C)NC(=O)[C@H](Cc1ccccc1)NC(=O)[C@@H](NC(=O)[C@H](CO)NC(=O)[C@H](Cc1ccc(O)cc1)NC(=O)[C@H](CC(=O)O)NC(=O)[C@H](CO)NC(=O)[C@@H](NC(=O)[C@](C)(Cc1ccccc1F)NC(=O)[C@@H](NC(=O)CNC(=O)[C@H](CCC(N)=O)NC(=O)C(C)(C)NC(=O)[C@@H](N)Cc1ccc(O)cc1)[C@@H](C)O)[C@@H](C)O)[C@@H](C)CC)C(=O)N[C@@H](CCC(=O)O)C(=O)N[C@@H](Cc1ccccc1)C(=O)N[C@@H](CC(C)C)C(=O)N[C@@H](CC(C)C)C(=O)N[C@@H](CCC(=O)O)C(=O)N[C@@H](CO)C(=O)N[C@@H](Cc1c[nH]cn1)C(=O)N1CCC[C@H]1C(=O)N[C@@H](CO)C(=O)N[C@@H](CO)C(=O)NCC(=O)N[C@@H](C)C(=O)N1CCC[C@H]1C(=O)N1CCC[C@H]1C(=O)NC1(C(=O)N[C@@H](CO)C(N)=O)CC1 [Compound 10] (H-Y[Aib]QGT[αMePhe(2-F)]TSDYSIFLDKK([AEEA-AEEA-γGlu-C20 diacid])AQ[Aib]AFIEFLLESHPSSGAPP[Ac3c]S-NH2) | 93.62% |  | 5.19 nM | 75.00% | 861.90% | 75.00% | 6.16 nM | 61.76% | 0.274 nM | 376.64% |  | 0.021 nM | 81.6 ± 8.50 mg |
